# Reference: US8815881B2 (Hoffmann-La Roche Inc., priority 2010, dated 2014)
# Molecular target: endogenous cellular BACE2 in the Ins1e rat cell line (Rattus norvegicus (Rat), UniProt Q6IE75)
# Assay: Assay for BACE inhibition by measuring cellular TMEM27 cleavage (ELISA of shed hTMEM27 from INS-TMEM27 cells)
# Format: cell-based
# Conditions: assay a): cellular TMEM27 cleavage, INS-TMEM27 cells (superscript a)
# Text: a) Assay for BACE Inhibition by Measuring Cellular TMEM27 Cleavage:
# The assay uses the principle of inhibition of human TMEM27 cleavage by endogenous cellular BACE2 in the Ins1e rat cell line and shedding from the cell surface into the culture medium, followed by detection in an ELISA assay. Inhibition of BACE2 prevents the cleavage and shedding in a dose-dependent manner.
# The stable cell line “INS-TMEM27” represents an INS1e-derived cell line with inducible expression (using the TetOn system) of full-length hTMEM27 in a doxycycline-dependent manner. The cells are cultured throughout the experiment in RPMI1640+Glutamax (Invitrogen) Penicillin/Streptomycin, 10% Fetal bovine serum, […], […], 100 micrograms/ml G418 and 100 microgram/ml hygromycin and are grown inadherent culture at 37° C. in a standard CO2 cell culture incubator.
# INS-TMEM27 cells are seeded in 96-well plates. After 2 days in culture, BACE2 inhibitor is added in a range of concentrations as required by the assay and after a further two hours, doxycycline is added to a final concentration of 500 ng/ml. The cells are incubated for a further 46 hours and the supernatant harvested for detection of shed TMEM27.
# An ELISA assay (using a pair of mouse anti-human-TMEM27 antibodies, raised against the extracellular domain of TMEM27) is used for detection of TMEM27 in the culture medium. An EC50 for BACE2 inhibition is calculated using the ELISA readout for each inhibitor concentration with standard curve-fitting software such as XLFit for the Excel spreadsheet program.
# Chain of endogenous cellular BACE2 in the Ins1e rat cell line (Q6IE75 63-514): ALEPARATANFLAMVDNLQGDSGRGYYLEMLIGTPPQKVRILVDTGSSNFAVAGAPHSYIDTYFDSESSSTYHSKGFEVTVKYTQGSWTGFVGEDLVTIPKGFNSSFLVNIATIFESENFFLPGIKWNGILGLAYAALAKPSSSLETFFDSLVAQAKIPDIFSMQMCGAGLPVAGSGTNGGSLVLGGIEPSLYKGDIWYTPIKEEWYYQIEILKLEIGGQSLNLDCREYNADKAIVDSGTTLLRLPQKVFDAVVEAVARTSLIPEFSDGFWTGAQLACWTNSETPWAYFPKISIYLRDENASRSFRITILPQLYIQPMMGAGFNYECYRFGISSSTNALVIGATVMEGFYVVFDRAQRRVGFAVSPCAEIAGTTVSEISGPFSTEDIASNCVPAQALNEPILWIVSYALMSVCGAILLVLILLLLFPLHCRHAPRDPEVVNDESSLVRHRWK
row,IC50 [nM],SMILES
1,32,"CN1C(=O)C(C)(C)[C@@](C)(c2cc(NC3CCc4cc(Cl)ccc43)ccc2F)N=C1N (stereo partly drawn) [Example 29, (S)-2-Amino-6-[5-(5-chloro-indan-1-ylamino)-2-fluoro-phenyl]-3,5,5,6-tetramethyl-5,6-dihydro-3H-pyrimidin-4-one]"
2,33,"CN1C(=O)C(C)(C)[C@@](C)(c2cc(NC3CCCC3Cl)ccc2F)N=C1N (stereo partly drawn) [Example 30, (6S)-2-Amino-6-(5-(2-chlorocyclopentylamino)-2-fluorophenyl)-3,5,5,6-tetramethyl-5,6-dihydropyrimidin-4(3H)-one]"
3,37,"CN1C(=O)C(C)(C)[C@@](C)(c2cc(NC3CCN(c4ccc(F)cc4)C3)ccc2F)N=C1N (stereo partly drawn) [Example 31, (6S)-2-Amino-6-(2-fluoro-5-(1-(4-fluorophenyl)pyrrolidin-3-ylamino)phenyl)-3,5,5,6-tetramethyl-5,6-dihydropyrimidin-4(3H)-one]"
4,32,"CN1C(=O)C(C)(C)[C@@](C)(c2cc(NC3CCN(Cc4ccccc4)C3)ccc2F)N=C1N (stereo partly drawn) [Example 32, (6S)-2-Amino-6-(5-(1-benzylpyrrolidin-3-ylamino)-2-fluorophenyl)-3,5,5,6-tetramethyl-5,6-dihydropyrimidin-4(3H)-one]"
5,29,"CN1C(=O)C(C)(C)[C@@](C)(c2cc(NC3CCC(c4ccccc4)C3)ccc2F)N=C1N (stereo partly drawn) [Example 33, (6S)-2-Amino-6-(2-fluoro-5-(3-phenylcyclopentylamino)phenyl)-3,5,5,6-tetramethyl-5,6-dihydropyrimidin-4(3H)-one]"
6,8,"CC1OCCC1Nc1ccc(F)c([C@@]2(C)N=C(N)N(C)C(=O)C2(C)C)c1 (stereo partly drawn) [Example 34, (6S)-2-Amino-6-(2-fluoro-5-(2-methyltetrahydrofuran-3-ylamino)phenyl)-3,5,5,6-tetramethyl-5,6-dihydropyrimidin-4(3H)-one]"
7,84,"CN1C(=O)C(C)(C)[C@@](C)(c2cc(NC3CCc4cc(F)ccc43)ccc2F)N=C1N (stereo partly drawn) [Example 35, (6S)-2-Amino-6-(2-fluoro-5-(5-fluoro-2,3-dihydro-1H-inden-1-ylamino)phenyl)-3,5,5,6-tetramethyl-5,6-dihydropyrimidin-4(3H)-one]"
8,535,"CN1C(=O)C(C)(C)[C@@](C)(c2cc(Nc3ccnn3C)ccc2F)N=C1N [Example 36, (S)-2-Amino-6-[2-fluoro-5-(2-methyl-2H-pyrazol-3-ylamino)-phenyl]-3,5,5,6-tetramethyl-5,6-dihydro-3H-pyrimidin-4-one]"
9,39,"CC(Nc1ccc(F)c([C@@]2(C)N=C(N)N(C)C(=O)C2(C)C)c1)C1CC1 (stereo partly drawn) [Example 37, (S)-2-Amino-6-[5-(1-cyclopropyl-ethylamino)-2-fluoro-phenyl]-3,5,5,6-tetramethyl-5,6-dihydro-3H-pyrimidin-4-one]"
10,48,"CC(Nc1ccc(F)c([C@@]2(C)N=C(N)N(C)C(=O)C2(C)C)c1)c1ccccc1 (stereo partly drawn) [Example 38, (S)-2-Amino-6-[2-fluoro-5-(1-phenyl-ethylamino)-phenyl]-3,5,5,6-tetramethyl-5,6-dihydro-3H-pyrimidin-4-one]"
11,234,"Cc1cc(Nc2ccc(F)c([C@@]3(C)N=C(N)N(C)C(=O)C3(C)C)c2)n(C)n1 [Example 39, (S)-2-Amino-6-[5-(2,5-dimethyl-2H-pyrazol-3-ylamino)-2-fluoro-phenyl]-3,5,5,6-tetramethyl-5,6-dihydro-3H-pyrimidin-4-one]"
12,21,CC(Nc1ccc(F)c([C@@]2(C)N=C(N)N(C)C(=O)C2(C)C)c1)c1ccccn1 (stereo partly drawn) [Example 40]
13,426,"CN1C(=O)C(C)(C)[C@@](C)(c2cc(NC3CCC(C(F)(F)F)CC3)ccc2F)N=C1N (stereo partly drawn) [Example 41, (S)-2-amino-6-(2-fluoro-5-(4-(trifluoromethyl)cyclohexylamino)phenyl)-3,5,5,6-tetramethyl-5,6-dihydropyrimidin-4(3H)-one]"
14,211,"CC(Cc1ccc(F)cc1)Nc1ccc(F)c([C@@]2(C)N=C(N)N(C)C(=O)C2(C)C)c1 (stereo partly drawn) [Example 42, (S)-2-Amino-6-{2-fluoro-5-[2-(4-fluoro-phenyl)-1-methyl-ethylamino]-phenyl}-3,5,5,6-tetramethyl-5,6-dihydro-3H-pyrimidin-4-one]"
15,211,"CN1C(=O)C(C)(C)[C@@](C)(c2cc(NC3CCN(Cc4ccccc4)CC3)ccc2F)N=C1N [Example 43, (S)-2-Amino-6-[5-(1-benzyl-piperidin-4-ylamino)-2-fluoro-phenyl]-3,5,5,6-tetramethyl-5,6-dihydro-3H-pyrimidin-4-one]"
16,45,"CN1C(=O)C(C)(C)[C@@](C)(c2cc(NC3CCCN(Cc4ccccc4)C3)ccc2F)N=C1N (stereo partly drawn) [Example 44, (S)-2-Amino-6-[5-(1-benzyl-piperidin-3-ylamino)-2-fluoro-phenyl]-3,5,5,6-tetramethyl-5,6-dihydro-3H-pyrimidin-4-one]"
17,11,"CN1C(=O)C(C)(C)[C@@](C)(c2cc(NC3CCCOC3)ccc2F)N=C1N (stereo partly drawn) [Example 45, (S)-2-Amino-6-[2-fluoro-5-(tetrahydro-pyran-3-ylamino)-phenyl]-3,5,5,6-tetramethyl-5,6-dihydro-3H-pyrimidin-4-one]"
18,109,"Cc1ccc2c(c1)C(Nc1ccc(F)c([C@@]3(C)N=C(N)N(C)C(=O)C3(C)C)c1)CC2(C)C (stereo partly drawn) [Example 46, (S)-2-Amino-6-[2-fluoro-5-(3,3,6-trimethyl-indan-1-ylamino)-phenyl]-3,5,5,6-tetramethyl-5,6-dihydro-3H-pyrimidin-4-one]"
19,217,"COc1cccc2c1CCC2Nc1ccc(F)c([C@@]2(C)N=C(N)N(C)C(=O)C2(C)C)c1 (stereo partly drawn) [Example 47, (S)-2-Amino-6-[2-fluoro-5-(4-methoxy-indan-1-ylamino)-phenyl]-3,5,5,6-tetramethyl-5,6-dihydro-3H-pyrimidin-4-one]"
20,42,"CN1C(=O)C(C)(C)[C@@](C)(c2cc(Nc3ccccc3)ccc2F)N=C1N [Example 48, (S)-2-amino-6-(2-fluoro-5-(phenylamino)phenyl)-3,5,5,6-tetramethyl-5,6-dihydropyrimidin-4(3H)-one]"
21,321,"CN1C(=O)C(C)(C)[C@@](C)(c2cc(NC3CCc4cccc(Cl)c43)ccc2F)N=C1N (stereo partly drawn) [Example 49, (S)-2-Amino-6-[5-(7-chloro-indan-1-ylamino)-2-fluoro-phenyl]-3,5,5,6-tetramethyl-5,6-dihydro-3H-pyrimidin-4-one]"
22,21.8,"CN1C(=O)C(C)(C)[C@@](C)(c2cc(NC3CCOCC3)ccc2F)N=C1N [Example 50, (S)-2-Amino-6-[2-fluoro-5-(tetrahydro-pyran-4-ylamino)-phenyl]-3,5,5,6-tetramethyl-5,6-dihydro-3H-pyrimidin-4-one]"
23,73,"CN1C(=O)C(C)(C)[C@@](C)(c2cc(NC3COc4ccccc43)ccc2F)N=C1N (stereo partly drawn) [Example 51, (6S)-2-amino-6-(5-(2,3-dihydrobenzofuran-3-ylamino)-2-fluorophenyl)-3,5,5,6-tetramethyl-5,6-dihydropyrimidin-4(3H)-one]"
24,7,"CN1C(=O)C(C)(C)[C@@](C)(c2cc(NCC3CC3)ccc2F)N=C1N [Example 52, (S)-2-Amino-6-(5-(C-cyclopropylmethylamino)-2-fluorophenyl)-3,5,5,6-tetramethyl-5,6-dihydropyrimidin-4(3H)-one]"
25,153,"CN1C(=O)C(C)(C)[C@@](C)(c2cc(NCC3(c4ccccc4)CC3)ccc2F)N=C1N [Example 53, (S)-2-Amino-6-{2-fluoro-5-[(1-phenyl-cyclopropylmethyl)-amino]-phenyl}-3,5,5,6-tetramethyl-5,6-dihydro-3H-pyrimidin-4-one]"
26,76,"CN1C(=O)C(C)(C)[C@@](C)(c2cc(NCCC(F)(F)F)ccc2F)N=C1N [Example 54, (S)-2-Amino-6-(2-fluoro-5-(3,3,3-trifluoropropylamino)phenyl)-3,5,5,6-tetramethyl-5,6-dihydropyrimidin-4(3H)-one]"
27,115,"Cc1ccccc1Nc1ccc(F)c([C@@]2(C)N=C(N)N(C)C(=O)C2(C)C)c1 [Example 55, (S)-2-Amino-6-(2-fluoro-5-(o-tolylamino)phenyl)-3,5,5,6-tetramethyl-5,6-dihydro-pyrimidin-4(3H)-one]"
28,15,"COc1ccccc1Nc1ccc(F)c([C@@]2(C)N=C(N)N(C)C(=O)C2(C)C)c1 [Example 56, (S)-2-Amino-6-(2-fluoro-5-(2-methoxyphenylamino)phenyl)-3,5,5,6-tetramethyl-5,6-dihydropyrimidin-4(3H)-one]"
29,10,"CN1C(=O)C(C)(C)[C@@](C)(c2cc(NCC3CC3(F)F)ccc2F)N=C1N (stereo partly drawn) [Example 58, (S)-2-Amino-6-{5-[(2,2-difluoro-cyclopropylmethyl)-amino]-2-fluoro-phenyl}-3,5,5,6-tetramethyl-5,6-dihydro-3H-pyrimidin-4-one]"
30,59,"CN1C(=O)C(C)(C)[C@@](C)(c2cc(NCc3cc[nH]n3)ccc2F)N=C1N [Example 61, (S)-2-Amino-6-{2-fluoro-5-[(1H-pyrazol-3-ylmethyl)-amino]-phenyl}-3,5,5,6-tetramethyl-5,6-dihydro-3H-pyrimidin-4-one]"
